In ChEMBL document CHEMBL1159147, “4-(2-PYRTOYL)-5-phenylthiazoles as novel non-bicyclic reversible inhibitors of the gastric H+/K+-atpase” (Bioorg Med Chem Lett, 1995):

Tests used:
[1] = target: T1, Potassium-transporting ATPase alpha chain 1 (Sus scrofa, UniProt P19156); assay: Ability to inhibit H+/K+ stimulated ATPase activity in lympholised gastric vesicles; format: tissue-based, Stomach
Rattus norvegicus = assay: Compound was tested in vivo for its ability to inhibit pentagastrin-stimulated gastric acid secretion in the anesthetized lumen perfused rat at 10 umol/kg iv; format: functional; conditions: Stomach
[2] = Acid dissociation constant was reported; format: ADME
[3] = target: T1, Potassium-transporting ATPase alpha chain 1; assay: Compound was evaluated for its ability to inhibit K+-stimulated ATPase activity
[4] = Ability to inhibit Na(+)/K(+)-stimulated ATPase activity in hog kidney; set-up: species or system Sus scrofa

T1 sequence (P19156 whole entry, the tested form may be a part): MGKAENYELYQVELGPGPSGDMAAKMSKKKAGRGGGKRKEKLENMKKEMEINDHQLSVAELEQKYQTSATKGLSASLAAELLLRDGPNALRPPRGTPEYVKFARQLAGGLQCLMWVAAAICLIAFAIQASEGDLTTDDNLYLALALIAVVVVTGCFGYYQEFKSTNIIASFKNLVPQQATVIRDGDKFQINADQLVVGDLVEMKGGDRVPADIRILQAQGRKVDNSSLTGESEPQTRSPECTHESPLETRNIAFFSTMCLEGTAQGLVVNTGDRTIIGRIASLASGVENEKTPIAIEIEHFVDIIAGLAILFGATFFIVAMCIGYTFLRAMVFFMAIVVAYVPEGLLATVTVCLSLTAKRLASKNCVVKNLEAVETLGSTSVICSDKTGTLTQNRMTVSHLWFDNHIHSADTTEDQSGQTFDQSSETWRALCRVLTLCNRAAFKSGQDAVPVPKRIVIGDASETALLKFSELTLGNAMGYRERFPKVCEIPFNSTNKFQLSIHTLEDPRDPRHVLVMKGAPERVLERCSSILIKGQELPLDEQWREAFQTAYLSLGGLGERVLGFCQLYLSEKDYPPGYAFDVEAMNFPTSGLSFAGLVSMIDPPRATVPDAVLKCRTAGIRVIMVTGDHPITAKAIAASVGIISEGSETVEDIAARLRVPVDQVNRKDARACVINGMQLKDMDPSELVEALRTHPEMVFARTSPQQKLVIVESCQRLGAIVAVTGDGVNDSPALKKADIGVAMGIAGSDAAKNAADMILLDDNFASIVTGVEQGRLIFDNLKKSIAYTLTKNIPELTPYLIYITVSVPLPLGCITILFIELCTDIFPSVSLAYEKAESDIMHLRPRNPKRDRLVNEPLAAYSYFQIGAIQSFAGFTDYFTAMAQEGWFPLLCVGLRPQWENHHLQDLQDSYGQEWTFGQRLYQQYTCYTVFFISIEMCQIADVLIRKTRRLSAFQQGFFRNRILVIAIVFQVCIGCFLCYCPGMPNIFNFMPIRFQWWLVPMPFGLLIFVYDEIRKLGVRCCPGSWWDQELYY

Row | Structure (SMILES) | IC50 [1] | pKa [2] | Ki [3] | IC50 [4] | inhibition in vivo at 10 µmol/kg (Rattus norvegicus)
1 | Cc1ccccc1-c1sc(Cc2ccccc2)nc1-c1ccccn1 | 9.6 µM |  |  |  | 29%
2 | Cc1ccccc1N1CCc2cnc3c(C)cccc3c21 | 0.98 µM |  |  |  | 47%
3 | CCCc1nc(-c2ccccn2)c(-c2ccccc2)s1 | 42.3 µM |  |  |  | 21%
4 | Cc1ccccc1-c1nc(-c2ccccn2)c(-c2ccccc2C)s1 | 4.9 µM |  |  |  | 
5 | CCOC(=O)c1cnc2c(OC)cccc2c1Nc1ccccc1C |  | 6.7 |  |  | 

Second part, led by results:

Row | IC50 [1] | pKa [2] | Ki [3] | IC50 [4] | Structure (SMILES) | inhibition in vivo at 10 µmol/kg (Rattus norvegicus)
6 | 12.5 µM |  |  |  | CCCc1nc(-c2cccc(NC)n2)c(-c2ccccc2C)s1 | 42%
7 | 8.2 µM | 4.2 |  |  | CCCc1nc(-c2ccccn2)c(-c2ccccc2C)s1 | 26%
8 | 2.9 µM |  |  |  | CCCc1nc(-c2cccc(N)n2)c(-c2ccccc2C)s1 | 48%
9 | 2.2 µM | 8 | 0.838 µM | 44 µM | CCCc1nc(-c2cc(N)ccn2)c(-c2ccccc2C)s1 | 36%
